Experiments:
Format in all cases: in vivo
rice [1] = assay: Treatment of soil under submerged condition, pre-emergence (Test 4), injury; details: 30 g ai/a granule, 30 days later
Outline: (§1)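 Scores reflect weed emergence and rice injury observed 30 days after a pre-emergence granule treatment. The granule, holding a predetermined amount of test composition, went onto submerged soil pots one day after sowing weeds and transplanting 2–3-leaf rice seedlings.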

narrowleaf waterplantain = assay: Petri dish test (Test 6); details: 336 h; seeds on filter paper, 25° C., 14 days; read-out: I80 (ppm)
Outline: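 Narrowleaf waterplantain seeds placed on filter paper pre-treated with compound in acetone (solvent air-dried) in 9 cm Petri dishes with 10 ml water, grown at 25° C in light. Growth was scored after fourteen days as degree of damage against an untreated group.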

green foxtail = assay: Upland foliar application test (Test 3); details: 30 g ai/a, foliar spray at 2-3 leaves, 30th day
Outline: (§2)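 Greenhouse pots, upland soil; seedlings at 2-3 leaves. Foliar ULV spray of water-diluted emulsion, 5 l/are. Injury/damage rated 30 d after spraying.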

johnsongrass = assay: Upland foliar application test (Test 3); details: 30 g ai/a, foliar spray at 2-3 leaves, 30th day
Outline: as §2

common lambsquarters = assay: Upland foliar application test (Test 3); details: 30 g ai/a, foliar spray at 2-3 leaves, 30th day
Outline: as §2

redroot pigweed = assay: Upland foliar application test (Test 3); details: 30 g ai/a, foliar spray at 2-3 leaves, 30th day
Outline: as §2

foxtail meadow = assay: Upland foliar application test (Test 3); details: 30 g ai/a, foliar spray at 2-3 leaves, 30th day
Outline: as §2

barnyardgrass [2] = assay: Upland foliar application test (Test 3); details: 30 g ai/a, foliar spray at 2-3 leaves, 30th day
Outline: as §2

large crabgrass = assay: Upland foliar application test (Test 3); details: 30 g ai/a, foliar spray at 2-3 leaves, 30th day
Outline: as §2

rice [3] = assay: Treatment of soil under submerged condition, post-emergence (Test 5), injury; details: 30 g ai/a granule, 30 days later
Outline: (§3)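 Granule applied to submerged greenhouse pots at two-leaf barnyardgrass; transplanted 2–3-leaf rice present; weed damage and rice injury graded 30 days on.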

bulrush [4] = assay: Treatment of soil under submerged condition, post-emergence (Test 5); details: 30 g ai/a granule, 30 days later
Outline: as §3

Sagittaria pygmaea [5] = assay: as above; details: 30 g ai/a granule, 30 days later
Outline: as §3

barnyardgrass [6] = assay: as above; details: 30 g ai/a granule, post-emergence (barnyardgrass two-leaf stage), 30 days later
Outline: as §3

cotton = assay: Upland foliar application test (Test 3), crop injury; details: 30 g ai/a, foliar spray at 2-3 leaves, 30th day
Outline: as §2

soybean = assay: as above; details: 30 g ai/a, foliar spray at 2-3 leaves, 30th day
Outline: as §2

peanut = assay: as above; details: 30 g ai/a, foliar spray at 2-3 leaves, 30th day
Outline: as §2

bulrush [7] = assay: Treatment of soil under submerged condition, pre-emergence (Test 4); details: 30 g ai/a granule, 30 days later
Outline: as §1

Sagittaria pygmaea [8] = assay: as above; details: 30 g ai/a granule, 30 days later
Outline: as §1

barnyardgrass [9] = assay: as above; details: 30 g ai/a granule, 30 days later
Outline: as §1

COc1cc(OC)nc(Oc2ccccc2C=NOC(C)C)n1 [compound 6]
3 (11-40 (Medium damages)): Herbicidal effects Large crabgrass (large crabgrass) | Herbicidal effects Sagittaria Pygmaea (Sagittaria pygmaea [5])
40 µg/mL: IC80 (narrowleaf waterplantain)
4 (6-10 (Severe damages)): Herbicidal effects Common lambsquarters (common lambsquarters) | Herbicidal effects Redroot pigweed (redroot pigweed) | Herbicidal effects Barnyardgrass (barnyardgrass [2]) | Herbicidal effects Bulrush (bulrush [4]) | Herbicidal effects Barnyardgrass (barnyardgrass [6]) | Herbicidal effects Bulrush (bulrush [7]) | Herbicidal effects Sagittaria Pygmaea (Sagittaria pygmaea [8]) | Herbicidal effects Barnyardgrass (barnyardgrass [9])
0 (91-100 (No damages)): Injury Rice (rice [1]) | Injury Rice (rice [3]) | Injury Cotton (cotton) | Injury Soybean (soybean) | Injury Peanut (peanut)
5 (0-5 (Death)): Herbicidal effects Green foxtail (green foxtail) | Herbicidal effects Johnsongrass (johnsongrass) | Herbicidal effects Foxtail meadow (foxtail meadow)

CC=CCON=Cc1ccccc1Oc1nc(OC)cc(OC)n1 [compound 8]
4 (6-10 (Severe damages)): Herbicidal effects Common lambsquarters (common lambsquarters) | Herbicidal effects Barnyardgrass (barnyardgrass [2]) | Herbicidal effects Bulrush (bulrush [7]) | Herbicidal effects Sagittaria Pygmaea (Sagittaria pygmaea [8]) | Herbicidal effects Barnyardgrass (barnyardgrass [9])
0 (91-100 (No damages)): Injury Cotton (cotton) | Injury Soybean (soybean) | Injury Peanut (peanut)
5 (0-5 (Death)): Herbicidal effects Green foxtail (green foxtail) | Herbicidal effects Johnsongrass (johnsongrass) | Herbicidal effects Redroot pigweed (redroot pigweed) | Herbicidal effects Foxtail meadow (foxtail meadow) | Herbicidal effects Bulrush (bulrush [4]) | Herbicidal effects Sagittaria Pygmaea (Sagittaria pygmaea [5]) | Herbicidal effects Barnyardgrass (barnyardgrass [6])
40 µg/mL: IC80 (narrowleaf waterplantain)
3 (11-40 (Medium damages)): Herbicidal effects Large crabgrass (large crabgrass)
1 (71-90 (Slight damages)): Injury Rice (rice [1]) | Injury Rice (rice [3])

CC#CCON=Cc1ccccc1Oc1nc(OC)cc(OC)n1 [compound 10]
5 (0-5 (Death)): Herbicidal effects Johnsongrass (johnsongrass) | Herbicidal effects Redroot pigweed (redroot pigweed) | Herbicidal effects Barnyardgrass (barnyardgrass [2]) | Herbicidal effects Large crabgrass (large crabgrass) | Herbicidal effects Bulrush (bulrush [4]) | Herbicidal effects Sagittaria Pygmaea (Sagittaria pygmaea [5]) | Herbicidal effects Barnyardgrass (barnyardgrass [6]) | Herbicidal effects Barnyardgrass (barnyardgrass [9])
1 (71-90 (Slight damages)): Injury Rice (rice [1]) | Injury Rice (rice [3])
0 (91-100 (No damages)): Injury Cotton (cotton) | Injury Soybean (soybean) | Injury Peanut (peanut)
4 (6-10 (Severe damages)): Herbicidal effects Green foxtail (green foxtail) | Herbicidal effects Common lambsquarters (common lambsquarters) | Herbicidal effects Foxtail meadow (foxtail meadow) | Herbicidal effects Bulrush (bulrush [7]) | Herbicidal effects Sagittaria Pygmaea (Sagittaria pygmaea [8])
17 µg/mL: IC80 (narrowleaf waterplantain)

COc1cc(OC)nc(Oc2ccccc2C=NOCC=CCl)n1 [compound 11]
3 (11-40 (Medium damages)): Herbicidal effects Bulrush (bulrush [7])
4 (6-10 (Severe damages)): Herbicidal effects Common lambsquarters (common lambsquarters) | Herbicidal effects Bulrush (bulrush [4]) | Herbicidal effects Sagittaria Pygmaea (Sagittaria pygmaea [5]) | Herbicidal effects Sagittaria Pygmaea (Sagittaria pygmaea [8]) | Herbicidal effects Barnyardgrass (barnyardgrass [9])
5 (0-5 (Death)): Herbicidal effects Green foxtail (green foxtail) | Herbicidal effects Johnsongrass (johnsongrass) | Herbicidal effects Redroot pigweed (redroot pigweed) | Herbicidal effects Foxtail meadow (foxtail meadow) | Herbicidal effects Barnyardgrass (barnyardgrass [2]) | Herbicidal effects Large crabgrass (large crabgrass) | Herbicidal effects Barnyardgrass (barnyardgrass [6])
0 (91-100 (No damages)): Injury Rice (rice [3]) | Injury Cotton (cotton) | Injury Soybean (soybean) | Injury Peanut (peanut)
40 µg/mL: IC80 (narrowleaf waterplantain)
1 (71-90 (Slight damages)): Injury Rice (rice [1])
